According to the supplement of paper PMC10949913:

What was measured:
Conditions in all cases: 48 h
CU-ACC2 [1] = test: area under concentration-response curve (viability) (AUC (a.u.)); higher = less active
Summary of the method: (§1)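 After 48 h of treatment with 23 nL of each library compound at 11 concentrations, three adrenocortical carcinoma cell lines in 1,536-well plates (500–1,000 cells/well, 5 µL medium) were given CellTiter-Glo for 15 minutes at room temperature. Luminescence was then read and normalised per plate to vehicle and empty-well controls. AC50 and area under the curve were drawn from fitted concentration-response curves of inhibitory or non-responding classes only.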

NCI-H295R [2] = test: as above
Summary of the method: as §1

CU-ACC1 [3] = test: as above
Summary of the method: as §1

CU-ACC2 [4] = test: AC50 viability; higher = less potent
Summary of the method: as §1

NCI-H295R [5] = test: AC50 viability; higher = less potent
Summary of the method: as §1

CU-ACC1 [6] = test: AC50 viability; higher = less potent
Summary of the method: as §1

SMILES	area under concentration-response curve (CU-ACC2 [1])	area under concentration-response curve (NCI-H295R [2])	area under concentration-response curve (CU-ACC1 [3])	AC50 viability (CU-ACC2 [4]) [µM]	AC50 viability (NCI-H295R [5]) [µM]	AC50 viability (CU-ACC1 [6]) [µM]
COC(=O)N[C@H](C(=O)N1CCC[C@H]1c1ncc(-c2ccc(-c3ccc(-c4cnc([C@@H]5CCCN5C(=O)[C@@H](NC(=O)OC)C(C)C)[nH]4)cc3)cc2)[nH]1)C(C)C	561	508	506	23.5	23.5	18.6
CC(C)[C@]12O[C@H]1[C@@H]3O[C@@]34[C@@]5(C)CC\C6=C(COC6=O)/[C@@H]5C[C@@H]7O[C@]47[C@@H]2O	242	274	251	0.059	0.295	0.0525
CC(C)C[C@H](NC(=O)[C@@H](NC(=O)c1cccc(-c2ccccc2)n1)[C@@H](C)O)B(O)O	297	337	300	0.0723	0.144	0.0723
CC(C)C1NC(=O)C(NC(=O)C2=C3\N=C\4/C(=C(C)\C(=O)\C(=C4C(=O)NC5C(C)OC(=O)C(C(C)C)N(C)C(=O)CN(C)C(=O)C6CCCN6C(=O)C(NC5=O)C(C)C)N)OC3=C(C)C=C2)C(C)OC(=O)C(C(C)C)N(C)C(=O)CN(C)C(=O)C7CCCN7C1=O (configuration not stated)	152	307	230	0.00812	0.144	0.0512
CC(C)[C@]12O[C@H]1[C@@H]3O[C@@]34[C@@]5(C)CC\C6=C(COC6=O)/[C@@H]5C[C@@H]7O[C@]47C2=O	270	329	245	0.0525	0.833	0.0417
CC(C)c1c2cc(-c3ccnc(N[C@H]4CC[C@H](NC5CCOCC5)CC4)n3)ccc2nn1C	376	380	333	0.263	0.417	0.372
COc1ccc(C(=O)c2c(C)n(CCN3CCOCC3)c3ccccc23)cc1	431	402	389	5.25	5.25	10.5
C=CCNC1=C2C[C@@H](C)C[C@H](OC)[C@H](O)[C@@H](C)/C=C(\C)[C@H](OC(N)=O)[C@@H](OC)/C=C\C=C(/C)C(=O)NC(=CC1=O)C2=O	418	515	433	13.2	37.2	10.5
C[C@@H](NCc1cc2ccccc2[nH]1)c1cccc2ccccc12	479	428	428	20.9	23.5	20.9
CO[C@H]1CCC(O[C@H]2C[C@H]([C@]3(C)CC[C@]4(C[C@H](O)[C@@H](C)[C@@H]([C@@H](C)/C=C(\C)C(=O)[C@H](C)C[C@H](C)C(=O)[O-])O4)O3)O[C@]3(O[C@@H]([C@H]4O[C@@](O)(CO)[C@H](C)C[C@@H]4C)C[C@@H]3C)[C@@H]2C)O[C@@H]1C (some centres not stated)	392	440	400	2.35	2.63	1.48
CC[S+](=O)([O-])c1cccc(-c2cc(C(=O)NC3CCN(C)CC3)c(C)c3[nH]c4ncc(C)cc4c23)c1	543	545	500	10.5	20.9	37.2
C=CC(=O)Nc1cccc(Oc2nc(Nc3ccc(N4CCN(C)CC4)cc3)ncc2Cl)c1	402	431	428	9.34	5.9	8.33
